Measured values from PubChem BioAssay (NCI).
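Assay format: 96-well plates, 48-hour exposure. GI50 = concentration required for 50% inhibition of growth. TGI denotes the concentration required for complete inhibition of growth.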

Columns and labels:
Assay in all cases: NCI-60 cell line screen, 48 h
[1] = test system: OVCAR-8 ovarian
[2] = test system: A549 NSCLC
[3] = test system: LOX IMVI melanoma
[4] = test system: RXF 393 renal
[5] = test system: NCI-H226 lung
[6] = test system: SN12C renal
[7] = test system: IGROV1 ovarian
[8] = test system: NCI-H522 lung
[9] = test system: OVCAR-5 ovarian
[10] = test system: MALME-3M melanoma

Structure (SMILES) | GI50 [1] | TGI [1] | GI50 [2] | TGI [2] | GI50 [3] | TGI [3] | GI50 [4] | TGI [4] | GI50 [5] | TGI [5] | GI50 [6] | TGI [6] | GI50 [7] | TGI [7] | GI50 [8] | TGI [8] | GI50 [9] | TGI [9] | GI50 [10] | TGI [10]
N#Cc1ncc(N2C(=O)C3(CCC3)N(c3ccc(OC4CCNCC4)nc3)C2=S)cc1C(F)(F)F | 25.1 µM | 76.2 µM | 27.7 µM | > 100 µM | 11.2 µM | 24 µM | 12.1 µM | 25.8 µM | 15.7 µM | 34 µM | 15.8 µM | 36 µM | 17.1 µM | 36.3 µM | 18.1 µM | 35.5 µM | 17.3 µM | 46.8 µM | 13.2 µM | 27.6 µM
CC(=O)Nc1cc2cc(NS(=O)(=O)c3cc(C(F)(F)F)cc(C(F)(F)F)c3)ccc2oc1=O | – | > 100 µM | – | > 100 µM | – | > 100 µM | – | 0.811 µM | – | > 100 µM | – | > 100 µM | – | > 100 µM | – | > 100 µM | – | > 100 µM | – | > 100 µM
Cc1ccc(S(=O)(=O)c2ccsc2N)cc1 | > 100 µM | > 100 µM | > 100 µM | > 100 µM | > 100 µM | > 100 µM | 63.9 µM | > 100 µM | 45.9 µM | > 100 µM | > 100 µM | > 100 µM | > 100 µM | > 100 µM | > 100 µM | > 100 µM | > 100 µM | > 100 µM | > 100 µM | > 100 µM
Cc1nn2c(/C=C3\C(=O)Nc4ccccc43)c(C)nc2s1 | 77.8 µM | > 100 µM | 32.7 µM | > 100 µM | 97.1 µM | > 100 µM | 26.2 µM | 87.6 µM | > 100 µM | > 100 µM | > 100 µM | > 100 µM | 30.6 µM | > 100 µM | 18.5 µM | > 100 µM | 50.7 µM | > 100 µM | > 100 µM | > 100 µM
CCCCN(CCCC)C(=O)C(=O)CC(=O)/C=C/c1ccccc1 | – | > 100 µM | – | > 100 µM | – | > 100 µM | – | > 100 µM | – | > 100 µM | – | > 100 µM | – | > 100 µM | – | > 100 µM | – | > 100 µM | – | > 100 µM
CC(C)(O)CCC(O)C(C)(O)C1CCC2(O)C3=CC(=O)C4(O)CC(O)C(O)CC4(C)C3CCC12C (centres undefined) (tested in a mixture with another compound) | – | > 100 µM | – | > 100 µM | – | > 100 µM | – | > 100 µM | – | > 100 µM | – | > 100 µM | – | > 100 µM | – | > 100 µM | – | > 100 µM | – | > 100 µM
C[C@]12CC[C@H]3[C@@H](CCC4=C[C@@H](OC5OCC(OC6OC(CO)C(O)C(O)C6O)C(O)C5O)CC[C@@]43C=O)[C@@]1(O)CCC2C1=CC(=O)OC1 (some centres undefined) | – | 2.76 µM | – | 0.484 µM | – | 2.96 µM | – | 1.2 µM | – | 5.79 µM | – | 2.01 µM | – | 2.66 µM | – | 2.88 µM | – | 3.78 µM | – | 2.19 µM
O=c1oc2cc(OS(=O)(=O)c3ccccc3)ccc2c2c1CCCCC2 | 86.1 µM | > 100 µM | 4.78 µM | > 100 µM | 8.71 µM | > 100 µM | 4.55 µM | > 100 µM | > 100 µM | > 100 µM | 7.24 µM | > 100 µM | > 100 µM | > 100 µM | 6.44 µM | > 100 µM | > 100 µM | > 100 µM | 29.4 µM | > 100 µM
O=C(O)c1ccc2cccnc2c1O | 1.27 µM | > 59.1 µM | 0.747 µM | 25.8 µM | 0.897 µM | 28.4 µM | 1.94 µM | 36.4 µM | 1.95 µM | > 56 µM | 0.797 µM | > 72.2 µM | 1.38 µM | 25.8 µM | 0.948 µM | 13.3 µM | 2.14 µM | > 100 µM | 1.84 µM | 4.41 µM
Cc1nc2sc(C(=O)Nc3cccc(Cl)c3C)c(N)c2cc1C(C)O (centres undefined) | 0.396 µM | > 71.7 µM | 0.246 µM | > 61.8 µM | 0.274 µM | > 44.1 µM | 0.189 µM | 18.1 µM | 2.21 µM | > 80.8 µM | 0.916 µM | > 47.4 µM | 0.414 µM | > 69.6 µM | 0.112 µM | 5.96 µM | 0.7 µM | > 74.8 µM | 1.11 µM | 37.5 µM
CC(=O)O[C@H](C[C@H](C(C)C)N(C)C(=O)[C@@H](NC(=O)[C@H]1CCCCN1C)C(C)(C)C)c1nc(C(=O)N[C@@H](Cc2ccccc2)C[C@H](C)C(=O)O)cs1 | < 0.0025 µM | > 25 µM | < 0.0025 µM | > 25 µM | < 0.0025 µM | > 25 µM | < 0.0025 µM | > 25 µM | 0.0348 µM | – | < 0.0025 µM | > 25 µM | 0.00294 µM | > 25 µM | < 0.0025 µM | 0.00847 µM | < 0.0025 µM | > 25 µM | < 0.0025 µM | > 25 µM
COc1cccc2ccc3c(c12)C(=O)OC31CCc2c(C)cccc21 (centres undefined) | – | > 46.4 µM | – | > 46.4 µM | – | > 46.4 µM | – | 44.6 µM | – | > 31.6 µM | – | > 46.4 µM | – | > 46.4 µM | – | > 31.6 µM | – | > 46.4 µM | – | > 46.4 µM
COc1cc(C(=O)C/C(CCC(=O)Nc2ccc(Cl)cc2Cl)=N/Nc2nnc(C)n2N)ccc1O | – | > 100 µM | – | > 100 µM | – | > 100 µM | – | > 100 µM | – | > 100 µM | – | > 100 µM | – | > 100 µM | – | > 100 µM | – | > 100 µM | – | > 100 µM
Cc1[nH]n(-c2ccccc2)c(=O)c1C(=O)c1ccccc1 | > 25 µM | > 25 µM | 11.7 µM | > 25 µM | > 25 µM | > 25 µM | > 25 µM | > 25 µM | > 25 µM | > 25 µM | > 25 µM | > 25 µM | > 15.4 µM | > 25 µM | > 25 µM | > 25 µM | > 25 µM | > 25 µM | > 25 µM | > 25 µM
